{
  "source": "patent US8916679B2",
  "about": "“Peptides binding to the dimer interface of thymidylate synthase for the treatment of cancer” (Universita′ degli Studi di Modena e Reggio Emilia, priority 2009, dated 2014)",
  "key": {"A2780 cells": {"system": "A2780 cells", "experiment": "Cell growth assay (crystal violet dye)", "type": "cell-based, human", "conditions": "10 μM, FIG. 7", "method": "Cultures were equilibrated with humidified 5% CO2 in air at 37° C.\nCells were seeded into 24-well plates and allowed to attach overnight. Peptides were delivered into cells by means of a peptide delivery system, following the procedures indicated by the manufacturer. On selected days, after removal of the tissue culture medium, cell growth was determined by a modification of the crystal violet dye assay. The extracted dye was proportional to cell number."}, "[1]": {"molecular_target": "T1, hTS enzyme (human Thymidylate synthase) (Homo sapiens, UniProt P04818)", "T1 construct": "made in house; host or cells: E. coli (printed as 'BL21 strain DH5α'), vector pQE80L", "T1 sequence (P04818 with tags, fused parts or gaps)": "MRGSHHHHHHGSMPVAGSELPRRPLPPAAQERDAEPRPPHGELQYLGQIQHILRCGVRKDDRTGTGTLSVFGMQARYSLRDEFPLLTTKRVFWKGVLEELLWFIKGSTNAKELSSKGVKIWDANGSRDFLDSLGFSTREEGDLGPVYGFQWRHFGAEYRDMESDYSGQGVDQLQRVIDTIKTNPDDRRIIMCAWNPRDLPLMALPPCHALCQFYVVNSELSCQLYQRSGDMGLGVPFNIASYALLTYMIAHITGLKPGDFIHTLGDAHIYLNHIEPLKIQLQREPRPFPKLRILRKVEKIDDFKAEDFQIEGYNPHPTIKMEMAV", "experiment": "Peptidic inhibitor Ki value determination vs dUMP and vs mTHF", "type": "biochemical", "conditions": "Lineweaver-Burk analysis, FIG. 4"}},
  "note": "Where no end group is shown, it is not given here.",
  "data": [
    {"sequence": "YVVNSELS [SEQ ID NO: 44]", "values": [
      {"measurement": "relative activity against A2780 cells", "setting": "A2780 cells", "result": "particularly active"}
    ]},
    {"sequence": "DFIHTLGD [SEQ ID NO: 1]", "values": [
      {"measurement": "type of inhibition (kinetic data)", "setting": "[1]", "result": "competitive inhibition pattern"}
    ]}
  ]
}
